Measurements: patent US20180318383A1, “PEPTIDE HAVING NEURONAL LOSS PREVENTION AND REGENERATION EFFECTS, AND COMPOSITION CONTAINING SAME” (GEMVAX & KAEL CO., LTD., priority 2015, published 2018)

Assays:
NSCs [1] = assay: Oxidative mitochondrial DNA damage (8-OHdG ELISA); format: cell-based, rat; settings: 20 μM Aβ25-35 + PEP1
Description: The oxidative DNA damage in the mitochondria was observed using an 8-OHdG ELISA kit. The mitochondria DNA was obtained using a genomic DNA isolation kit. 8-OHdG monoclonal antibodies were added to samples and a control group, and then corresponding HRP-attached secondary antibodies were added thereto. The samples were quantified using 8-OHdG and observed by measuring absorbance at 450 nm.

β-amyloid = assay: Expression levels of all types of Aβs in 3XTg-AD mice (western blotting); format: in vivo; settings: hippocampus and whole brain; vs control and Donepezil
Description: To test the efficacy of PEP1 on AD, AD transgenic mice (3XTg-AD) were purchased from Jackson Laboratory. Genetic characteristics of the transgenic mice are as follows: B6; 129-Psen1tm1Mpm Tg(APPSwe, tauP301L)1Lfa/Mmjax. […] One week after mice were confirmed as pregnant, new mice were delivered and weaned for 3 weeks. Two weeks later, mature mice were obtained.
During the preliminary breeding and the entire period of the experiment, a temperature was maintained at 23±2° C. and a relative humidity was maintained at 60±10%, and then the mice were raised under a 12-hour dark/light cycle. Experimental animals were divided into five groups, and each group included 10 animals. The divided experimental groups are as follows. […]
The PEP1, physiological saline, donepezil and scramble peptide were subcutaneously injected at each concentration three times a week for two months from the age of 12 months, and then two months after the injection, cognitive/memory behavior tests (passive avoidance test and Y maze test) were performed to examine a degree of improvement in cognitive function and memory function. After the brain was extracted to separate the hippocampus, the amounts of amyloid beta in the hippocampus and the whole brain, and the amounts of an amyloid beta oligomer and NFT generated by tau hyperphosphorylation were determined by western blotting and immunostaining. […]

NSCs [2] = assay: Proteomics and antibody microarray of NSCs; format: cell-based, rat; settings: 20 μM Aβ25-35 + 10 μM PEP1, 48 hours, antibody microarray
Description: The cultured NSCs were washed with cold PBS twice, and disrupted in a sample lysis buffer using a sonicator for 10 seconds. In addition, the cells were disrupted again for a further 1 hour at room temperature. After centrifugation at 15° C. and 15000 g for 1 hour, a non-water-soluble sample was eliminated, and only water-soluble samples were subjected to two-dimensional electrophoresis. A protein concentration was quantified by a Bradford method.
200 μg of a protein sample was loaded on an Immobiline DryStrip gel. […] was performed at 20° C. For electron focusing, a voltage was increased from 150 volts to 3500 volts over 3 hours to allow the sample to enter the gel. Before entering two-dimensionally, the sample was cultured in an equilibration buffer for 10 minutes. […]
For quantitative analysis, images were analyzed with a PDQuest system. […]
To identify a protein through peptide mass fingerprinting, a protein spot was cleaved into smaller peptides using trypsin, well mixed with a-cyano-4-hydroxycinnamic acid in 50% acetonitrile/0.1% TFA, and then analyzed with MALDI-TOF. […]
For antibody microarray analysis, a panorama antibody cell signaling kit was used. […] Array slides were read using a scanner, and results from the obtained scans were analyzed using an analysis program.

Sequence: EARPALLTSRLRFIPK (homo sapiens) [PEP1, hTERT-derived peptide consisting of 16 amino acids, telomerase location [611-626]]
- oxidative mitochondrial DNA damage (NSCs [1]): effectively decreased
- expression levels of all types of Aβs (β-amyloid): decreased
- phosphorylated proteins associated with proliferation (NSCs [2]): recovered
